“Also recorded” adds a separate entry of the source.
What was measured:
[1] = system: human lung cancer cell line NCI-H23; test: Colony formation assay of long-term effect; assay type: cell-based; details: exposed for three days, drug-free medium until 12 days; compared with AZD1152
Text: Acute cytotoxicity immediately determined after short-term exposure to antimitotic agents often underestimates their potency, because some cancer cells might not die quickly after suffering mitotic defects such as an arrest in mitosis or a cytokinetic failure. Instead, after exposed to antimitotic agents, cells might face multiple possibilities that adversely affect their viability and proliferation in long-term such as permanent arrest of proliferation due to the development of senescence and nonapoptotic cell death by excessive autophagy. Only a small fraction of cells pretreated with an antimitotic agent might resume proliferation and divide to generate viable daughter cells that form colonies. Assay of the ability of cells to form colonies after being exposed to an anticancer agent for a short period of time represents a more accurate approach to document the potency of antimitotic agents. The human lung cancer cell line NCI-H23 in sub-confluence was exposed to compounds #7, #36, and #39 for three days and then transferred to drug-free fresh medium once every 3 days until 12 days after the initiation of treatment. At the end point, cells were photographed after fixed and stained with crystal violet.

[2] = system: Human Cancer Cells; test: Anchorage-independent growth in 3D culture (FIG. 3); assay type: cell-based; details: FIG. 3 legend, cell line not named
Text: (§1) Measuring the ability of cells to grow in soft agar has been popularly believed as the gold standard assay for cellular transformation in vitro. In the Soft Agar Assay, cells grow from single cells to cell colonies in a semi-solid agar solution that keeps them away from the solid surface and allows growth in an anchorage-independent way.
(§2) The anchorage-independent growth of cells is one of the hallmarks of cancer cells. Normal epithelial cells are supported by basement membranes that provide survival and proliferative signals while undergo a type of apoptosis called anoikis when lose their attachment to the extracellular matrix. Cancer cells, in contrast, evade detachment-induced apoptosis, leading to uncontrolled proliferation and metastasis. The Soft Agar Colony Formation Assay allows testing of the therapeutic efficacy of compounds against anchorage-independent 3D growth of cancer cells in vin. The assay was performed in 6-well plates with two layers of agar. For the first, 0.75% agar in DMEM medium was melted in a microwave oven and poured to form a bottom layer. Once solidified, 10-100K cells in 1 ml of DMEM containing 0.35% agar was added to form the top layer, which was later covered with 0.5 ml of DMEM. Cell culture medium was changed once every two days until colonies were ready to photograph. We test the antitumor activity of select compounds in soft agar colony formation assays. […] The suppression of growth of these three cancer cell lines in 3D culture is consistent with the potent impact of these compounds on cellular proliferation in 2D culture.

[3] = system: NCI-H23; test: MECP in cancer cell line; assay type: cell-based; details: Homo sapiens
How it was run: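 DMEM, 5% FBS, 37 °C, 5% CO2; dose range 1 nM–30 μM; endpoints MI (24 h), polyploidy (48 h), 72 h DNA content by imaging; categorical A–D output.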

[4] = system: cervical cancer cell line Hela; test: Soft agar colony formation assay; assay type: cell-based, human
Text: as §1, §2

[5] = system: Calu-6; test: MECP in cancer cell line; assay type: cell-based, human
Method: (§3) Six lung cancer cell lines (NCI-H23, NCI-H460, NCI-H596, NCI-H2170, Calu-6 and A549), two colon cancer cell lines (HCT116 and SW460), one breast cancer cell line MDA-MB-231, one gastric cancer cell line NCI-N87, one prostate cancer cell line DU145, one cervical cancer cell line Hela, and one glioblastoma cell line T98G were obtained from ATCC. The T2 HCC cell line was derived from a mouse liver cancer model initiated by a transgene of MYC. All cell lines were cultured in DMEM (Gibco, Cleveland, TN, USA) supplemented with 5% fetal bovine serum (Gibco), penicillin (100 U/mL)—streptomycin (100 μg/mL) (Gibco, Cat. No. 15140-122), 2 mM L-glutamine (Gibco, 200 mM solution, Cat. No. 25030081), and 1 mM sodium pyruvate (Gibco, 100 mM solution, Cat. No. 11360070) at 37° C. in a humidified incubator that was maintained at 5% CO2.
(§4) We have previously developed a mechanism-informed phenotypic screening assay to identify novel antimitotic agents. Equipped with a prior understanding of the versatile functions of the chromosomal passenger protein (CPP) complex in orchestrating karyokinesis and cytokinesis, the screening assay is to score for phenotypes typically seen when the CPP complex is disabled. Specifically, the parameters for a positive hit are a temporary elevation of mitotic index (MI) at 24 hours of drug treatment and an accumulation of polyploid cells at 48 hours of drug treatment, indicative of mitotic arrest and cytokinetic failure respectively. These parameters exclude compounds that elicit only a prolonged arrest of cells in mitosis, a phenotype typically provoked by spindle toxins. The screening procedure is briefly summarized here. RPEMYC^H2B-GFP cells engineered to express a Histone 2B-EGFP fusion protein were passaged as batches of 96-well plates, 18-24 hours before exposure to the chemical compounds of the present disclosure at concentrations from 1 nM to 30 μM. At 24, 48 or 72 hours after initiation of treatment, cells were analyzed for either an arrest in mitosis or a change in DNA content by GE IN-Cell Analyzer 2000. As set forth in Table 2 below, a value of greater than or equal to 1 nM and less than or equal to 1.0 μM is marked “A”; a value greater than 1.00 μM and less than or equal to 10.0 μM is marked “B”; a value greater than 10.0 μM and less than or equal to 30.0 μM is marked “C”; and a value greater than 30.0 μM is marked “D.”

[6] = system: DU145; test: MECP in cancer cell line; assay type: cell-based, human
Method: as §3, §4

[7] = system: NCI-H2170; test: MECP in cancer cell line; assay type: cell-based, human
Method: as §3, §4

SMILES	long-term proliferative potential of NCI-H23 cells (colony formation) [1]	Anchorage-independent Growth of Human Cancer Cells in 3D Culture [2]	minimal effective concentration [3]	anchorage-independent growth in soft agar [4]	MECP [5]	MECP [6]	MECP [7]
COc1cc(OC)cc(Oc2ccnc3ccccc23)c1 [Compound 7, 4-(3,5-dimethoxyphenoxy)quinoline]	Suppress the Long-Term Proliferative Potential; also recorded: inhibited the long-term proliferative potential	Suppress the Anchorage-independent Growth	0.001 to 1 µM	effectively suppressed the anchorage-independent growth			
COC(=O)c1cc(OC)cc(Oc2ncnc3ccsc23)c1 [Compound 37, methyl 3-methoxy-5-(thieno[3,2-d]pyrimidin-4-yloxy)benzoate]			0.001 to 1 µM		A (a value of greater than or equal to 1 nM and less than or equal to 1.0 μM)	A (a value of greater than or equal to 1 nM and less than or equal to 1.0 μM)	A (a value of greater than or equal to 1 nM and less than or equal to 1.0 μM)
COC(=O)c1cc(OC)cc(Oc2ncnc3cc(OC)c(OC)cc23)c1 [Compound 29]			0.001 to 1 µM		A (a value of greater than or equal to 1 nM and less than or equal to 1.0 μM)	B (a value greater than 1.00 M and less than or equal to 10.0 μM)	A (a value of greater than or equal to 1 nM and less than or equal to 1.0 μM)
COC(=O)c1cc(OC)cc(Oc2ncnc3cc[nH]c23)c1 [Compound 34, methyl 3-((5H-pyrrolo[3,2-d]pyrimidin-4-yl)oxy)-5-methoxybenzoate]			0.001 to 1 µM		A (a value of greater than or equal to 1 nM and less than or equal to 1.0 μM)	A (a value of greater than or equal to 1 nM and less than or equal to 1.0 μM)	A (a value of greater than or equal to 1 nM and less than or equal to 1.0 μM)
COC(=O)c1cc(Oc2ncnc3cc[nH]c23)cc(C(=O)OC)c1 [Compound 36, dimethyl 5-((5H-pyrrolo[3,2-d]pyrimidin-4-yl)oxy)isophthalate]	Suppress the Long-Term Proliferative Potential; also recorded: inhibited the long-term proliferative potential	Suppress the Anchorage-independent Growth	0.001 to 1 µM	effectively suppressed the anchorage-independent growth	A (a value of greater than or equal to 1 nM and less than or equal to 1.0 μM)	A (a value of greater than or equal to 1 nM and less than or equal to 1.0 μM)	A (a value of greater than or equal to 1 nM and less than or equal to 1.0 μM)
COC(=O)c1cc(Oc2ncnc3ccsc23)cc(C(=O)OC)c1 [Compound 39, dimethyl 5-(thieno[3,2-d]pyrimidin-4-yloxy)isophthalate]	Suppress the Long-Term Proliferative Potential; also recorded: inhibited the long-term proliferative potential	Suppress the Anchorage-independent Growth	0.001 to 1 µM	effectively suppressed the anchorage-independent growth	A (a value of greater than or equal to 1 nM and less than or equal to 1.0 μM)	A (a value of greater than or equal to 1 nM and less than or equal to 1.0 μM)	A (a value of greater than or equal to 1 nM and less than or equal to 1.0 μM)
